Columns and labels:
[1] = cited from earlier work; for temperature at which Tm and Tg curves cross (Tg′): phase diagram, FIG. 6; for Tg′: α-(1→4)-linked glucose hexamers, Levine and Slade
[2] = tested on: metaphase II mouse oocytes; assay: fertilization and blastocyst development of fresh oocytes cultured in modified HTF media; assay type: cell-based
Description: Thus, a hypertonic media for the culturing of certain recovered cells was developed using a two-prong approach. First, a standard culture medium called HTF (human tubal fluid medium) was modified to minimize the concentration of electrolytes (see FIG. 7, components marked with down arrows) and to increase other nutrients and amino acids (see FIG. 7, components marked with up arrows). The osmolarity of this medium was determined using an osmometer. Because the osmolarity of this medium was approximately 285 mosm, which is close to the normal internal osmolarity of cells, this medium is called modified HTF, isotonic. Second, the water content of the medium was reduced to equally increase the concentrations of each component to achieve a final osmolarity of 320 mosm. This medium is called modified HTF, hypertonic, (see FIG. 7, last column).
To test the ability of modified HTF, isotonic and hypertonic media to support the fertilization and development of oocytes, these medias were used to culture fresh mouse metaphase II oocytes that had not been cyropreserved. […] If desired, the composition and hypertonicity of the culture medium may be further optimized to increase the number of blastocysts or viable offspring that are formed. For example, a culture medium having a higher osmolarity (such as 330, 340, 350, 360, 370, or 380 mosm) may better mimic oviductal fluid (which may have an osmolarity of at least 360 mosm) and thus further promote development of viable offspring (Van Winkle et al., J. Expt Zool. 253:215-219, 1990). Any other suitable hypertonic media with a osmolarity of at least 300, 310, 320, 330, 340, 350, 360, 370, 380, or more mosm may be used in preferred methods for culturing cells in vitro. These methods may be used to culture cells with or without intracellular sugar. These preferred medias may also be used before, during, or after storage of cryopreserved cells.

[3] = tested on: metaphase II mouse oocytes; assay: survival of cooled oocytes after overnight culture in modified HTF, hypertonic media (live/dead assay); assay type: cell-based
Description: (§1) Once the cell is prepared for storage, it is stored in a manner appropriate to its preparation. Frozen cells can be stored at cryogenic temperatures and dried cells can be dry stored at ambient or other temperatures as appropriate. Recovery of stored cells is geared to the method of their preparation for storage. Dried cells are rehydrated, and frozen cells are thawed. Preferably, at least 25, 35, 50, 60, 70, 80, 90, 95, or 100% of the recovered cells are viable. Cell viability may be measured using any standard assay, such as a “live/dead” assay using the green dye calcein-AM to indicate viable cells and the red dye ethidium homodimer to indicate dead cells, according to the manufacturer's protocol (Molecular Probes, Inc.). In another preferred embodiment, at least 5, 10, 15, 25, 35, 50, 60, 70, 80, 90, or 95% of the recovered oocytes may be fertilized using standard in vitro fertilization techniques (see, for example, Summers et al., Biol. Reprod. 53:431-437, 1995). Preferably, the fertilized oocytes develop into 2-cell stage embryos, 4-cell stage embryos, morula-stage embryos, blastocyst-stage embryos, fetal-stage embryos, or viable offspring.
FIGS. 9A and 9B are a set of graphs showing the survival of cooled metaphase II mouse oocytes after overnight culture in modified HTF, hypertonic media as a function of extracellular trehalose concentration at −15° and −30°, respectively. These experiments were performed using a cooling rate of 1° C./min, with or without approximately 0.10 to 0.15 M intracellular trehalose. Cell viability was assessed using the live/dead assay described herein. […] As the extracellular amount of trehalose in the freezing solution was increased from 0.15 M (approximately the same amount as the intracellular trehalose) to 0.30 M or 0.50 M, the survival rate improved from about 18, to 55 or 85%, respectively.

[4] = tested on: metaphase II mouse oocytes; assay: survival of cooled oocytes after overnight culture in modified HTF media, isotonic (live/dead assay); assay type: cell-based; conditions: 0.50 M extracellular trehalose only; very slow cooling to −60° C.
Description: as §1
Cell survival was measured using the live/dead assay. […] In FIG. 10, oocytes were cooled at a very slow cooling rate to an intermediate temperature (−60° C.). […]

oocytes = assay: cryomicroscopy: cumulative incidence of intracellular ice during cooling; assay type: cell-based; conditions: cooling 3.5° C./min
Description: FIG. 13 is a graph with a set of curves showing the percentage of oocytes that have intracellular ice at various temperatures. For this assay, standard cryomicroscopy procedures were used to cool oocytes at a rate of 3.5° C./min (Cosman et al., Cryo-Letters 10:17-38, 1989). The oocytes were observed using a cryomicroscope to determine whether intracellular ice had formed. The presence of intracellular ice was easily detected based on the black color that appeared due to the light scattered by the ice crystals. This assay was used to test control oocytes incubated in isotonic media alone, oocytes incubated in media with 0.1 M extracellular trehalose, and oocytes injected with 0.1 M trehalose and incubated in media with 0.1 M extracellular trehalose. […] In the field of cryobiology, it has been established that the faster the cooling rate without formation of lethal intracellular ice, the greater the chance of cell survival.

[5] = oocytes injected with 0.07 M trehalose, modified HTF, hypertonic media

C[S+](C)[O-] [DMSO, dimethyl sulfoxide]
temperature at which Tm and Tg curves cross (Tg′) [1]: approximately −80 °C

OC[C@H]1O[C@H](O[C@H]2O[C@H](CO)[C@@H](O)[C@H](O)[C@H]2O)[C@H](O)[C@@H](O)[C@@H]1O [trehalose]
frequency of blastocyst formation ([2]; intracellular trehalose 0.15 M): reduced, but still significant
frequency of fertilization ([2]; intracellular trehalose 0.15 M): reduced, but still significant
frequency of blastocyst development [2, 5]: high frequency
frequency of fertilization [2, 5]: high frequency
survival rate ([3]; 0.15 M extracellular trehalose in freezing solution, with approximately 0.10 to 0.15 M intracellular trehalose, cooling 1° C./min): about 18%
survival rate ([3]; 0.30 M extracellular trehalose in freezing solution, with approximately 0.10 to 0.15 M intracellular trehalose, cooling 1° C./min): ~55%
survival rate ([3]; 0.50 M extracellular trehalose in freezing solution, with approximately 0.10 to 0.15 M intracellular trehalose, cooling 1° C./min): ~85%
survival rate ([3]; cooled to −15° C. at 1° C./min, approximately 0.10 to 0.15 M intracellular trehalose versus none): dramatically increased
survival rate ([3]; cooled to −30° C. at 1° C./min, approximately 0.10 to 0.15 M intracellular trehalose versus none): dramatically increased
survival rate [4]: some improvement over the control
incidence of intracellular ice formation (oocytes; 0.1 M extracellular trehalose versus isotonic media alone): reduced
frequency of intracellular ice (oocytes; 0.1 M injected trehalose plus 0.1 M extracellular trehalose): further reduced
temperature at which Tm and Tg curves cross (Tg′) [1]: approximately −30 °C

cyclodextrin
Tg′ [1]: −9 °C

maltohexaose
Tg′ [1]: −14.5 °C
